The source of these data is patent publication US20170066717A1, “NEW PHENYLAZETIDINECARBOXYLATE OR -CARBOXAMIDE COMPOUNDS” (INVENTIVA, priority 2014, published 2017).

Data set [1] in a line: Brain penetration in rats after intravenous administration. The class given is in vivo. As to conditions: rat; for Kp at 4 h: male, Wistar, intravenous, 4 mg/kg, ratio of Cmax brain to Cmax plasma after the 4 hours of infusion, rats, read-out: Kp (partition coefficient between the brain and the plasma); for Cmax at 4 h: male Wistar rats, 4 mg/kg iv infusion into the jugular vein for 4 hours, plasma at end of infusion. As to the method: (§1) Three series of in vivo tests were carried out with compounds representative of the invention, for the purpose of determining their pharmacokinetic plasma profile and their brain penetration.
2. Study of the Brain Penetration in Rats After Intravenous Administration
Male Wistar rats (250-300 g) originating from the establishment Janvier, Le Genest-St-Isle, France were used for this study (4 rats per study). The animals were fed with standard feed for rodents (Purina Mills, St. Louis, Mo.), placed in cages and subjected to light/darkness cycles of 12 h/12 h, the room temperature being maintained at 22±2° C. and the humidity level at 55±10%. The rats were not deprived food before the administration. Water was provided at will throughout the study.
The test compound was administered intravenously at 4 mg/kg by infusion into the jugular vein for 4 hours. For the intravenous administration, the animals were infused with 12 mL/kg of a solution of the test compound, prepared in 2% Cremophor EL/0.9% NaCl.
The animals were sacrificed under anesthesia after 4 hours of infusion. The blood and the brain were collected from each sacrificed animal 0.5 mL of blood collected in 1.5 mL tubes containing 20 μL of evaporated anticoagulant (solution of sodium heparinate at 1000 IU/mL) was centrifuged at 4500 g for 3 min in order to obtain approximately 200 μL of plasma. The plasma was divided up into 2 aliquots of 70 μL minimum, which were stored at −20° C. until they were treated by protein precipitation and then analysis by liquid chromatography coupled to tandem mass spectrometry (LC-MS/MS) in order to quantify the compound tested.
The brains were immersed in liquid nitrogen directly after they were removed, then stored at −20° C. for analysis. The brains were then ground in the presence of an aqueous/organic solvent mixture in order to obtain a homogenate. These homogenates were then centrifuged and the compound tested was extracted from the supernatant obtained, by liquid-liquid extraction, and then quantified by LC-MS/MS.
The brain penetration in the rats is represented by the Kp, which is the partition coefficient between the brain and the plasma. It is calculated by the ratio of the concentration measured in the brain (Cmax brain) and the plasma (Cmax plasma) after the 4 hours of infusion.

In data set [2] the target is T1, NURR-1/RXRγ (Homo sapiens, UniProt P48443).
T1 construct: expressed in transfected cells; host or cells: Cos-7 cells
T1 sequence (P48443 whole entry): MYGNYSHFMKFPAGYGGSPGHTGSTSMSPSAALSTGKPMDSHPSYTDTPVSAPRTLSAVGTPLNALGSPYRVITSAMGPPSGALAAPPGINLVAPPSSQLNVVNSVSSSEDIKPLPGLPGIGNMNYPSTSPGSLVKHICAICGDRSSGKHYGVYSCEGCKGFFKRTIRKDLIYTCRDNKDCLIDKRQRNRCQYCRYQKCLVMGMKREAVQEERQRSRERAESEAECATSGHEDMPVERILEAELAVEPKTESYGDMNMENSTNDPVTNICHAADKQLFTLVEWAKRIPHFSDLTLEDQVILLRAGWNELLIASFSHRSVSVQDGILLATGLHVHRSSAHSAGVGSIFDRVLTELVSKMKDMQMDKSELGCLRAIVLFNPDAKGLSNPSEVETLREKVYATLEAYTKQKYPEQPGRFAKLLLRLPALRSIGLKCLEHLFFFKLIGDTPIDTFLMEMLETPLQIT
T1 sequence (P43354 whole entry partner): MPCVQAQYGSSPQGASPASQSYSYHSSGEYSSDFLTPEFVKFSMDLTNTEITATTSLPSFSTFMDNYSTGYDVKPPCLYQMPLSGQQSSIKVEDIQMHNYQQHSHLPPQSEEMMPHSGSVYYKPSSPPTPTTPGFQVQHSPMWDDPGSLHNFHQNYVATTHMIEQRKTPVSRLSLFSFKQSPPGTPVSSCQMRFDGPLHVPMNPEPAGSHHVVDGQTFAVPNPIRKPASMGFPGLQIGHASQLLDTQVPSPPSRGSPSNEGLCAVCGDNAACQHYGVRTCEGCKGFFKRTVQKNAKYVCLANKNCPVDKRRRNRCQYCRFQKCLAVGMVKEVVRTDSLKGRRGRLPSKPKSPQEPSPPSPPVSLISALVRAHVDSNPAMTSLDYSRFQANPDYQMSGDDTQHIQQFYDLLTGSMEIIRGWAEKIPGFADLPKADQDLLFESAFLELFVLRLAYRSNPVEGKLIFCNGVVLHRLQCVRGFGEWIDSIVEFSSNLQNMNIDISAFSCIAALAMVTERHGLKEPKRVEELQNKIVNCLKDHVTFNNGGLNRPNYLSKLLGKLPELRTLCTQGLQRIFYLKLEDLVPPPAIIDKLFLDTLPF
T1 sequence (P04386 1-147 partner limits assumed): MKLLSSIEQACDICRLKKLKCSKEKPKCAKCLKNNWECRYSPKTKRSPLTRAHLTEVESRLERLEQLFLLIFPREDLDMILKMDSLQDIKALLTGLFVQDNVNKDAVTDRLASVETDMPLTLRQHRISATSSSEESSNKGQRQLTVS
Nature of the data set: Transactivation test, NURR-1-Gal4/RXRγ, luciferase reporter in Cos-7 cells. The following applies: for Emax: COS-7, induction level relative to reference XCT0135908 at 2×10^−5 M (=100%), read-out: hNurr1_RXRgFL Emax (%); for pEC50: Cos-7 cells, NURR-1-Gal4/RXRγ, luciferase reporter, read-out: hNurr1_RXRgFL EC50. The class given is cell-based. (Reporter assays use an easily measured gene product as a stand-in for the process of interest.)

The target of data set [3] is T2, NURR-1/RXRα (Homo sapiens, UniProt P19793).
T2 construct: expressed in transfected cells; host or cells: Cos-7 cells
T2 sequence (P19793 whole entry): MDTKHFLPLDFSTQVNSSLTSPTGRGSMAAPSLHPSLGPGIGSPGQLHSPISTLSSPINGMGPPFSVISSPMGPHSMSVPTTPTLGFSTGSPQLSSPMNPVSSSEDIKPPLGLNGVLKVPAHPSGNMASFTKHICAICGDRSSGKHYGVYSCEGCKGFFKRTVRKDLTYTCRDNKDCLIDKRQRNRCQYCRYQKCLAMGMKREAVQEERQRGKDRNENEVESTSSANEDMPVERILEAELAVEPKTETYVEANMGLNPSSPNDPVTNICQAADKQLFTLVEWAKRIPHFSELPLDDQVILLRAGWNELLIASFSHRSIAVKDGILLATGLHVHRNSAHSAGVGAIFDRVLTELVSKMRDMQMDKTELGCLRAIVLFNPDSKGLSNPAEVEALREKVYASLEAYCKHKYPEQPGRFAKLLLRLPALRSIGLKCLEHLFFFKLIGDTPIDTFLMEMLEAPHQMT
T2 sequence (P43354 whole entry partner): as the sequence (P43354 whole entry partner) above
T2 sequence (P04386 1-147 partner limits assumed): as the sequence (P04386 1-147 partner limits assumed) above
In words: Transactivation test, NURR-1-Gal4/RXRα, luciferase reporter in Cos-7 cells. The format is cell-based. As to conditions: for Emax: COS-7, induction level relative to reference XCT0135908 at 2×10^−5 M (=100%), read-out: hNurr1_RXRaFL Emax (%); for pEC50: Cos-7 cells, NURR-1-Gal4/RXRα, luciferase reporter, read-out: hNurr1_RXRaFL EC50.

The nature of data set [4]: Plasma pharmacokinetics in mice after oral administration. The class given is in vivo. As to conditions: mouse, male C57/Bl6 mice, oral 10 mg/kg; for AUC: sampling 15 min to 7 h, log-linear trapezoidal method, read-out: AUCplasma; for Cmax: suspension in 1% methylcellulose/0.1% Poloxamer 188. How it is done: as §1
1. Study of the Plasma Phannacokinectis in Mice After Oral Administration
Male C57/B16 mice (25-30 g) originating from the establishment Janvier, Le Genest-St-Isle, France were used for this study (9 mice per dose). The animals were fed with standard feed for rodents (Purina Mills, St. Louis, Mo.), placed in cages and subjected to light/darkness cycles of 12 h/12 h, the temperature of the room being maintained at 22±2° C. and the humidity level at 55±10%.
The mice were not deprived food before the administration. Water was provided at will throughout the study. The test compound was admistered orally at 10 mg/kg. For the oral administration at 10 mg/kg, the animals were green, by gavage, 10 mL/kg of a suspension of the test compound, prepared in 1% methylcellulose, 400 cps/0.1% Poloxamer 188/water.
The animals were sacrificed under anesthesia at times 15 min, 30 min, 1 h, 3 h and 7 h after gavage. The blood was collected at each time, and from each animal sacrificed 0.5 mL of blood collected in 1.5 mL tubes containing 20 μL of evaporated anticoagulant (solution of sodium heparinate at 1000 IU/mL) was centrifuged at 4500 g for 3 min in order to obtain approximately 200 μL of plasma. The plasma was divided up into 2 aliquots of 70 μL minimum, which were stoted at −20° C. until they were treated by protein precipitation and then analysis by liquid chromatography coupled to tandem mass spectrometry (LC-MS/MS) in order to quantify the compound tested.
The pharmacokinetic plasma parameters in the mice after oral administration were determined using a non-compartmental approach with the Phoenix WinNonLin software. The area under the curve (AUC0-1) was determined bv the log-linear trapezoidal method. The tesults are brought together in the following table.

Data set [5] relates to dopaminergic neurons of primary culture of rat embryo mesencephalon treated with MPP+. Nature of the data set: Neuroprotection in primary culture of rat embryo mesencephalon treated with MPP+ (count of tyrosine hydroxylase expressing cells). The format is cell-based. As to conditions: recombinant human BDNF 10 ng/mL = 100%, 2 days with MPP+. The method, boiled down:
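Rat embryo (E15) mesencephalon cultures, 5 days, then MPP+ with or without compound on day 6 for 2 days. Tyrosine hydroxylase-immunolabelled cells counted by image analysis; activity expressed as percent of recombinant human BDNF (10 ng/mL) reference, set at 100%.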

pEC50: −log10 of the molar value.

Broadly, the Kp is the ratio of the level in a tissue or fluid to that in plasma or blood. By Cmax is commonly meant the highest concentration seen after dosing. In general, Emax refers to the greatest response seen or fitted, relative to the assay's reference. As a reminder, the pEC50 is the EC50 on a negative log10 scale, so that one unit is a factor of ten. In the case of `Cc1cc(N2CC(C(=O)O)C2)cc(-n2ccc3cc(C(F)(F)F)ccc32)c1` [Example 50, 1-[3-methyl-5[5-(trifluoromethyl)indol-1-yl]phenyl]azetidine-3-carboxylic acid], in data set [1], the Kp at 4 h worked out at 0.19 and the Cmax at 4 h is 4920 ng/mL. Besides, in data set [2], the maximal response (Emax) stood at 102% and the negative-log EC50 (pEC50) is 8.30. In data set [3], the maximal effect (Emax) turned out to be 95% and the negative logarithm of the EC50 (pEC50) is 8.70. Further, in data set [4], the AUC came to 24300 ng·h/mL and the maximum concentration (Cmax) came out at 11400 ng/mL. For the same compound, the “percentage of activity relative to the BDNF reference” value in data set [5] (compound 1 μM) was determined as 74%. Also, the “percentage of activity relative to the BDNF reference” value in data set [5] (compound 10 μM) stood at 91%.
With `O=C(O)C1CN(c2cccc(-c3cc(C(F)(F)F)ccc3OCCc3cccs3)c2)C1` [Example 100, 1-[3-[2-[2-(2-thienyl)ethoxy]-5-(trifluoromethyl)phenyl]phenyl]azetidine-3-carboxylic acid], in data set [1], the concentration ratio (Kp) at 4 h came out at 0.75 and the concentration peaked (Cmax at 4 h) at 6070 ng/mL. Moreover, in data set [2], the Emax stood at 63% and the negative logarithm of the EC50 (pEC50) is 7.62. Moreover, in data set [3], the maximal response (Emax) is 63% and the pEC50 is 7.85. Moreover, in data set [4], the AUC was 56600 ng·h/mL and the concentration peaked (Cmax) at 11200 ng/mL. Also, in data set [5] (compound 1 μM), the “percentage of activity relative to the BDNF reference” value is 100%. For the same compound, the “percentage of activity relative to the BDNF reference” value in data set [5] (compound 10 μM) is 106%.
As for `Cc1nnc(COc2ccc(C(F)(F)F)cc2-c2cccc(N3CC(C(=O)O)C3)c2)o1` [Example 110, 1-[3-[2-[(5-methyl-1,3,4-oxadiazol-2-yl)methoxy]-5-(trifluoromethyl)phenyl]phenyl]azetidine-3-carboxylic acid], in data set [1], the partition ratio (Kp) at 4 h stood at 0.2 and the Cmax at 4 h stood at 10100 ng/mL. For the same compound, in data set [2], the Emax is 32% and the negative-log EC50 (pEC50) was 5.77. For the same compound, in data set [3], the Emax was 49% and the pEC50 is 5.82. Moreover, in data set [4], the AUC was 40100 ng·h/mL and the peak concentration (Cmax) is 8710 ng/mL. Further, in data set [5] (compound 1 μM), the “percentage of activity relative to the BDNF reference” value is given as 74%. For the same compound, the “percentage of activity relative to the BDNF reference” value in data set [5] (compound 10 μM) is recorded as 102%.
`O=C(O)C1CN(c2cccc(N3CC4(CCC4)Oc4cc(C(F)(F)F)ccc43)c2)C1` [Example 113, 1-[3-[7-(trifluoromethyl)spiro[3H-1,4-benzoxazine-2,1′-cyclobutane]-4-yl]phenyl]azetidine-3-carboxylic acid]: in data set [1], the partition ratio (Kp) at 4 h was determined as 1.2 and the concentration peaked (Cmax at 4 h) at 3430 ng/mL. For the same compound, in data set [2], the Emax worked out at 139% and the pEC50 is 8.40. Besides, in data set [3], the Emax was 140% and the pEC50 is 8.52. Also, in data set [4], the AUC is 3340 ng·h/mL and the peak level (Cmax) was 2290 ng/mL. Besides, the “percentage of activity relative to the BDNF reference” value in data set [5] (compound 1 μM) was found to be 90%. Further, the “percentage of activity relative to the BDNF reference” value in data set [5] (compound 10 μM) is on record as 80%.
On to `O=C(O)C1CN(c2cccc(N3CCOc4cc(C(F)(F)F)ccc43)c2)C1` [Example 115, 1-[3-[7-(trifluoromethyl)-2,3-dihydro-1,4-benzoxazin-4-yl]phenyl]azetidine-3-carboxylic acid], for which, in data set [1], the concentration ratio (Kp) at 4 h was 0.22 and the highest concentration (Cmax) at 4 h worked out at 10600 ng/mL. In addition, in data set [2], the maximal response (Emax) was determined as 129% and the negative-log EC50 (pEC50) is 7.66. Besides, in data set [3], the maximum response (Emax) amounted to 114% and the pEC50 was 7.24. For the same compound, in data set [4], the AUC worked out at 51600 ng·h/mL and the highest level (Cmax) was 24400 ng/mL. In data set [5] (compound 1 μM), the “percentage of activity relative to the BDNF reference” value amounted to 103%. Further, the “percentage of activity relative to the BDNF reference” value in data set [5] (compound 10 μM) is listed as 77%.
As to `CCCC1Oc2cc(C(F)(F)F)ccc2N(c2cccc(N3CC(C(=O)O)C3)c2)C1=O` (stereo not drawn) [Example 122, 1-[3-[3-oxo-2-propyl-7-(trofluoromethyl)-1,4-benzoxazin-3-yl]phenyl]azetidine-3-caroxylic acid], in data set [1], the Kp at 4 h stood at 1.14 and the highest level (Cmax at 4 h) was 3860 ng/mL. Moreover, in data set [2], the maximal effect (Emax) came out at 95% and the negative-log EC50 (pEC50) is 7.85. In data set [3], the Emax amounted to 93% and the pEC50 is 7.89. In data set [4], the AUC is 34100 ng·h/mL and the maximum concentration (Cmax) is 7840 ng/mL. For the same compound, the “percentage of activity relative to the BDNF reference” value in data set [5] (compound 1 μM) was 92%. For the same compound, in data set [5] (compound 10 μM), the “percentage of activity relative to the BDNF reference” value was 39%.
